From paper PMC6227840 (Open Medicine, 2018)
Where two headings read alike, the source gives them in different places.

Columns and labels:
[1] = cited from earlier work
[2] = Population pharmacokinetic; conditions: normal renal function
[3] = cited from earlier work; remark: listed apart in the source

With `CN[C@H](CC(C)C)C(=O)N[C@H]1C(=O)N[C@@H](CC(N)=O)C(=O)N[C@H]2C(=O)N[C@H]3C(=O)N[C@H](C(=O)N[C@H](C(=O)O)c4cc(O)cc(O)c4-c4cc3ccc4O)[C@H](O)c3ccc(c(Cl)c3)Oc3cc2cc(c3O[C@@H]2O[C@H](CO)[C@@H](O)[C@H](O)[C@H]2O[C@H]2C[C@](C)(N)[C@H](O)[C@H](C)O2)Oc2ccc(cc2Cl)[C@H]1O` [vancomycin, Vancomycin] the “central volume of distribution” value (base model, impaired renal function, n = 78) was 22.7 L, the “central volume of distribution, renal impairment group versus normal group” value (base models, 22.7L vs. 7.12L) was 3 times and the “Clearance of vancomycin – CL, Bootstrap analysis Estimate” value (final model parameter, impaired renal function, 200 bootstrap runs) was 0.281 L/h. The “Central volume of distribution – V1, NONMEM Estimate” value (final model, impaired renal function) was 29.9 L, the “Central volume of distribution – V1, Bootstrap analysis Estimate” value (final model, impaired renal function, 200 bootstrap runs) was 30.7 L and the “apparent volume of distribution” value ([1]; after intravenous administration, distributed in extracellular space) was 0.4 to 1 L/kg. For the same molecule, the clearance [1] was “about 2.64 l/h”, the “central volume of distribution” value ([2]; base model, n = 32) was 7.12 L and the “Clearance of vancomycin – CL, Bootstrap analysis Estimate” value ([2]; final model parameter, 200 bootstrap runs) was 0.0754 L/h. For the same molecule, the “Central volume of distribution – V1, NONMEM Estimate” value ([2]; final model) was 7.47 L, the “Central volume of distribution – V1, Bootstrap analysis Estimate” value ([2]; final model, 200 bootstrap runs) was 7.55 L and the “interstitial fluid concentration in brain tissue” value ([3]; healthy adults) was 0 to 3.45 mg/L. The “interstitial fluid concentration in the brain” value ([3]; patients with meningitis) was 6.4 to 11.1 mg/L.
